Reference: patent publication US20100022531A1, “NOVEL COMPOUNDS AS P2X7 MODULATORS AND USES THEREOF” (RENOVIS, INC., priority 2005, published 2010)

Biological target: T1, P2X7 receptor (Homo sapiens, UniProt Q99572)
T1 construct: host or cells: THP-1 cells differentiated with LPS and IFN-γ
T1 sequence (Q99572 1-595): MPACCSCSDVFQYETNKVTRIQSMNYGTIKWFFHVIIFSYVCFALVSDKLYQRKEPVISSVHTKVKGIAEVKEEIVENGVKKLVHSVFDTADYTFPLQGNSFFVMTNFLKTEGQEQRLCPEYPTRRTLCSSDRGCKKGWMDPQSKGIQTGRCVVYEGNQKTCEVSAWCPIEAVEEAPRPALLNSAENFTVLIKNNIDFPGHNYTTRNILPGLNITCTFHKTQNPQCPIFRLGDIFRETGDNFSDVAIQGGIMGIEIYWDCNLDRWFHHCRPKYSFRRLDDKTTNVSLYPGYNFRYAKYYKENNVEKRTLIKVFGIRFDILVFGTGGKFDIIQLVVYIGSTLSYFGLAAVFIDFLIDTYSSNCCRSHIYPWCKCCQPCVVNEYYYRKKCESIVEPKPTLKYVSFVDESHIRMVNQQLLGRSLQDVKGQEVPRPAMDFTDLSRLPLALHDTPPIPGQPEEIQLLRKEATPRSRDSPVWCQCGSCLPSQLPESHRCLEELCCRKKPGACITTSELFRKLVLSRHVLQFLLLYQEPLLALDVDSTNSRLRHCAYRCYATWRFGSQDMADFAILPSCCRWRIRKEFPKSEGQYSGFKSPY
Test: Alternate method for IL-1β release assay (differentiated THP-1 cells, BzATP-stimulated, ELISA)
Type: cell-based
Settings: P2X7; 0.1 μM compound (plus symbols); read-out: IL-1β % inhib @ 0.1 μM
Description: Alternate Method for IL-1β Release Assay
THP-1 cells (ATCC Cat #285-IF-100) are plated in 96 well plates at a concentration of 200,000 cells per well and allowed to differentiate in RPMI-1640 media (ATCC Cat #30-2001) containing 10% FBS, 100 IU/mL penicillin, 100 ug/mL streptomycin, 100 ng/mL LPS and 100 ng/mL IFN-γ for 16 hours. Following differentiation, the cells are treated for an additional 2 hours in RPMI-1640 media containing 100 IU/mL penicillin, 100 ug/mL streptomycin and fresh LPS at 100 ng/mL. The cells are then pretreated for 30 minutes with the compound of interest at the appropriate concentration in RPMI media containing 100 IU/mL penicillin, 100 ug/mL streptomycin. Following the pretreatment 2′,3′-O-(4-benzoylbenzoyl)-adenosine 5′-triphosphate (Sigma Aldrich Cat# B6396) is added to a final concentration of 250 uM and the cells incubated for an additional 45 minutes. 30 uL of cell supernatant is then collected and IL-1β levels determined via ELISA (R&D systems Cat. # HSLB50) according to manufacturers recommendations using the Tecan Safire plate reader. Background adjusted IL-1β levels of drug treated and non-treated cells are used to calculate the percent inhibition.

inhibition at 0.1 µM [%]	Structure (SMILES)
50 to 75	O=C(c1ccccc1F)N1CCc2c(ncnc2NCC23CC4CC(CC(C4)C2)C3)C1 [Compound 135]
25 to 50	O=S(=O)(c1ccccc1-c1ccccc1)N1CCc2c(ncnc2NCC23CC4CC(CC(C4)C2)C3)C1 [Compound 50]

Same assay, conditions: P2X7; 0.1 μM compound (symbols + to ++++); read-out: IL-1β % inhib @ 0.1 μM

inhibition at 0.1 µM [%]	Structure (SMILES)
0 to 25	O=C(OCc1ncoc1-c1ccccc1)N1CCc2c(ncnc2NCC23CC4CC(CC(C4)C2)C3)C1 [Compound 346]
0 to 25	O=C(OCc1cncs1)N1CCc2c(ncnc2NCC23CC4CC(CC(C4)C2)C3)C1 [Compound 349]

Same assay, conditions: P2X7; 0.3 μM compound (asterisk symbols); read-out: IL-1β % inhib @ 0.3 μM

inhibition at 0.3 µM [%]	Structure (SMILES)
25 to 50	O=S(=O)(c1ccc(OC(F)F)cc1)N1CCc2c(ncnc2NCC23CC4CC(CC(C4)C2)C3)C1 [Compound 46]
25 to 50	c1ccc(Oc2cccc(CN3CCc4c(ncnc4NCC45CC6CC(CC(C6)C4)C5)C3)c2)cc1 [Compound 179]
> 75	CCCCCN1CCc2c(ncnc2NCC23CC4CC(CC(C4)C2)C3)C1 [Compound 169]
25 to 50	O=S(=O)(c1ccc(F)cc1)N1CCc2c(ncnc2NCC23CC4CC(CC(C4)C2)C3)C1 [Compound 13]
0 to 25	Cc1nc(S(=O)(=O)N2CCc3c(ncnc3NCC34CC5CC(CC(C5)C3)C4)C2)cn1C [Compound 22]
50 to 75	CC(C)(C)C(=O)N1CCc2c(ncnc2NCC23CC4CC(CC(C4)C2)C3)C1 [Compound 107]
0 to 25	Cc1ccc(CN2CCc3c(ncnc3NCC34CC5CC(CC(C5)C3)C4)C2)cc1C [Compound 196]
50 to 75	c1ccc(Oc2ccc(CN3CCc4c(ncnc4NCC45CC6CC(CC(C6)C4)C5)C3)cc2)cc1 [Compound 187]
> 75	O=C(c1cccnc1Oc1ccccc1)N1CCc2c(ncnc2NCC23CC4CC(CC(C4)C2)C3)C1 [Compound 129]
25 to 50	O=c1ccc2cc(S(=O)(=O)N3CCc4c(ncnc4NCC45CC6CC(CC(C6)C4)C5)C3)ccc2o1 [Compound 28]
50 to 75	O=C(Cc1ccc(F)cc1)N1CCc2c(ncnc2NCC23CC4CC(CC(C4)C2)C3)C1 [Compound 96]
0 to 25	O=S(=O)(c1cc(Cl)cc(Cl)c1)N1CCc2c(ncnc2NCC23CC4CC(CC(C4)C2)C3)C1 [Compound 65]
25 to 50	Clc1ccc(CN2CCc3c(ncnc3NCC34CC5CC(CC(C5)C3)C4)C2)c(Cl)c1 [Compound 181]
0 to 25	O=S(=O)(Cc1ccc(C(F)(F)F)cc1)N1CCc2c(ncnc2NCC23CC4CC(CC(C4)C2)C3)C1 [Compound 39]
0 to 25	O=C(c1ccc(Cl)nc1)N1CCc2c(ncnc2NCC23CC4CC(CC(C4)C2)C3)C1 [Compound 136]

Same assay, conditions: P2X7; 0.3 μM compound (symbols * to ****); read-out: IL-1β % inhib @ 0.3 μM

Structure (SMILES)	inhibition at 0.3 µM [%]
Clc1ccc(CN2CCc3c(ncnc3NCC34CC5CC(CC(C5)C3)C4)C2)cc1 [Compound 212]	> 75
CCN(CC(=O)N1CCc2c(ncnc2NCC2C3CC4CC(C3)CC2C4)C1)Cc1ccncc1 (stereo not shown) [Compound 268]	50 to 75

Continued, values first:

inhibition at 0.3 µM [%]	Structure (SMILES)
25 to 50	CCN1CCN(CC(=O)N2CCc3c(ncnc3NCC3C4CC5CC(C4)CC3C5)C2)CC1 (stereo not shown) [Compound 278]
25 to 50	CN(CC(=O)N1CCc2c(ncnc2NCC2C3CC4CC(C3)CC2C4)C1)Cc1ccc(Cl)cc1 (stereo not shown) [Compound 306]
0 to 25	O=C(CN1CCOCC1)N1CCc2c(ncnc2NCC2C3CC4CC(C3)CC2C4)C1 (stereo not shown) [Compound 272]
0 to 25	O=C(CN1CCC(C(F)(F)F)CC1)N1CCc2c(ncnc2NCC2C3CC4CC(C3)CC2C4)C1 (stereo not shown) [Compound 300]
0 to 25	CN(CC(=O)N1CCc2c(ncnc2NCC2C3CC4CC(C3)CC2C4)C1)Cc1ccc(F)cc1 (stereo not shown) [Compound 312]
0 to 25	O=C(CN1CCC(F)(F)CC1)N1CCc2c(ncnc2NCC2C3CC4CC(C3)CC2C4)C1 (stereo not shown) [Compound 310]

Same assay, conditions: P2X7; at 0.03 μM (asterisk symbols); read-out: IL-1β % inhib @ 0.3 μM or @ 0.03 μM

inhibition at 0.03 µM [%]	Structure (SMILES)
50 to 75	CC(C)(C)OC(=O)NCC(=O)N1CCc2c(ncnc2NCC(O)C23CC4CC(CC(C4)C2)C3)C1 (stereo not shown) [Compound 707, {2-[4-(2-Adamantan-1-yl-2-hydroxy-ethylamino)-5,8-dihydro-6H-pyrido[3,4d]pyrimidin-7-yl]-2-oxo-ethyl}-carbamic acid tert-butyl ester]
